Measured values: US20230373974A1, “MODULATORS OF CYSTIC FIBROSIS TRANSMEMBRANE CONDUCTANCE REGULATOR” (VERTEX PHARMACEUTICALS INCORPORATED, priority 2020, published 2023)

How the values were obtained:
CFTR = CFTR (Homo sapiens, UniProt P13569); assay: standard Ussing Chamber Assay for CFTR potentiator activity; type: cell-based
F508del in NIH 3T3 cells = molecular target: T1, F508del in NIH 3T3 cells (Homo sapiens, UniProt P13569, DEL508-508); assay: 3T3 assay: membrane potential optical assay for F508del correction; type: cell-based, mouse; conditions: F508del NIH 3T3 cells, incubated with compound 18-24 hours at 37° C., forskolin activation
T1 construct: expressed in transfected cells
T1 sequence (P13569 with tags, fused parts or gaps DEL508-508): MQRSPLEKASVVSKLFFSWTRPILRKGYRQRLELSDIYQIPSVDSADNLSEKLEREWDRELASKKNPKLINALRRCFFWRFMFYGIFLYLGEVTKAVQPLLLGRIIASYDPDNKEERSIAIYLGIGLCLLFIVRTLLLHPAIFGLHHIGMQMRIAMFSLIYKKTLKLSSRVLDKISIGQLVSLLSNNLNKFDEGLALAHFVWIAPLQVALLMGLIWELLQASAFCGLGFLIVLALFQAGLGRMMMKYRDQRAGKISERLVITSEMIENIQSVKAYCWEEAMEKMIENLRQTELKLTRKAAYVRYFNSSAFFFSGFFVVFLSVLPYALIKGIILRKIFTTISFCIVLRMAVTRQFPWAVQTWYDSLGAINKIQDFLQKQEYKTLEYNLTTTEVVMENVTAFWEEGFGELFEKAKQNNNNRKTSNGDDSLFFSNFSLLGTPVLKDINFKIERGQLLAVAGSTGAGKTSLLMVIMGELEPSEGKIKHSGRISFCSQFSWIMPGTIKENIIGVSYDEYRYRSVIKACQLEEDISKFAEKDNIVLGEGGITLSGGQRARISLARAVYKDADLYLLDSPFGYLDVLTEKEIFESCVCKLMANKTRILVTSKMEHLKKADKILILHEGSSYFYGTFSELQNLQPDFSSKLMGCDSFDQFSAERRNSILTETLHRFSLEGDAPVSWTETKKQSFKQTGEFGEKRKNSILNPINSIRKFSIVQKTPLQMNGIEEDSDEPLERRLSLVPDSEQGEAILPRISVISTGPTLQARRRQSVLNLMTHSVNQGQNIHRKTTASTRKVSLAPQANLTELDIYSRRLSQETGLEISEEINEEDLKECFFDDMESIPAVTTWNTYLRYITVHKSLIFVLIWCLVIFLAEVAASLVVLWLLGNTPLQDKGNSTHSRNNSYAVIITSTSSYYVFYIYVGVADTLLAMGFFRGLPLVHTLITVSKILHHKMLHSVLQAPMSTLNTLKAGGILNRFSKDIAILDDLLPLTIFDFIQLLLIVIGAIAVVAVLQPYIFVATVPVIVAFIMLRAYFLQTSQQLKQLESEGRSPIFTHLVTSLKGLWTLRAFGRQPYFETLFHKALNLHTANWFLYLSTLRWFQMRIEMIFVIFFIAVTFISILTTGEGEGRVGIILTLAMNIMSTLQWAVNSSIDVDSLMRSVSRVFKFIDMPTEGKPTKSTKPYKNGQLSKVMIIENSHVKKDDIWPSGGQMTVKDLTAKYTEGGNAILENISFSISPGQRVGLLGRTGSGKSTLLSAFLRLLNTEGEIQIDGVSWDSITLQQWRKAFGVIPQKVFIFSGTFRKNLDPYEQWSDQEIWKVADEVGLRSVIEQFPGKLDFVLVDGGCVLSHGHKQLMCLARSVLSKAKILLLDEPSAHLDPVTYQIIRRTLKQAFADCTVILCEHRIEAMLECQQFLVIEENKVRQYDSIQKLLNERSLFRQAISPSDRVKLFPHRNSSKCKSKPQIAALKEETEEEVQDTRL
Source text: Membrane Potential Optical Methods for Assaying F508del Modulation Properties of Compounds The assay utilizes fluorescent voltage sensing dyes to measure changes in membrane potential using a fluorescent plate reader (e.g., FLIPR III, Molecular Devices, Inc.) as a readout for increase in functional F508del in NIH 3T3 cells. The driving force for the response is the creation of a chloride ion gradient in conjunction with channel activation by a single liquid addition step after the cells have previously been treated with compounds and subsequently loaded with a voltage sensing dye. 2. Identification of Corrector Compounds To identify correctors of F508del, a single-addition HTS assay format was developed. This HTS assay utilizes fluorescent voltage sensing dyes to measure changes in membrane potential on the FLIPR III as a measurement for increase in gating (conductance) of F508del in F508del NIH 3T3 cells. The F508del NIH 3T3 cell cultures were incubated with the corrector compounds at a range of concentrations for 18-24 hours at 37° C., and subsequently loaded with a redistribution dye. The driving force for the response is a Cl^− ion gradient in conjunction with channel activation with forskolin in a single liquid addition step using a fluorescent plate reader such as FLIPR III. […] Solutions […] Chloride-free bath solution: Chloride salts in Bath Solution #1 (above) are substituted with gluconate salts. 4. Cell Culture NIH3T3 mouse fibroblasts stably expressing F508del are used for optical measurements of membrane potential. The cells are maintained at 37° C. in 5% CO2 and 90% humidity in Dulbecco's modified Eagle's medium supplemented with 2 mM glutamine, 10% fetal bovine serum, 1×NEAA, b-ME, 1×pen/strep, and 25 mM HEPES in 175 cm^2 culture flasks. For all optical assays, the cells were seeded at ˜20,000/well in 384-well Matrigel-coated plates. For the correction assays, the cells are cultured at 37° C. with and without compounds for 16-24 hours.

[1] = molecular target: CFTR-mediated chloride transport in human intestinal epithelial enteroid cells (Homo sapiens, UniProt P13569); assay: Enteroid assay: membrane potential dye assay (Enteroid Assay A or B); type: cell-based; conditions: for Ent. Max Activity (%): chloride transport as percentage of triple combination control (% Activity)
Chain of CFTR-mediated chloride transport in human intestinal epithelial enteroid cells (P13569 whole entry): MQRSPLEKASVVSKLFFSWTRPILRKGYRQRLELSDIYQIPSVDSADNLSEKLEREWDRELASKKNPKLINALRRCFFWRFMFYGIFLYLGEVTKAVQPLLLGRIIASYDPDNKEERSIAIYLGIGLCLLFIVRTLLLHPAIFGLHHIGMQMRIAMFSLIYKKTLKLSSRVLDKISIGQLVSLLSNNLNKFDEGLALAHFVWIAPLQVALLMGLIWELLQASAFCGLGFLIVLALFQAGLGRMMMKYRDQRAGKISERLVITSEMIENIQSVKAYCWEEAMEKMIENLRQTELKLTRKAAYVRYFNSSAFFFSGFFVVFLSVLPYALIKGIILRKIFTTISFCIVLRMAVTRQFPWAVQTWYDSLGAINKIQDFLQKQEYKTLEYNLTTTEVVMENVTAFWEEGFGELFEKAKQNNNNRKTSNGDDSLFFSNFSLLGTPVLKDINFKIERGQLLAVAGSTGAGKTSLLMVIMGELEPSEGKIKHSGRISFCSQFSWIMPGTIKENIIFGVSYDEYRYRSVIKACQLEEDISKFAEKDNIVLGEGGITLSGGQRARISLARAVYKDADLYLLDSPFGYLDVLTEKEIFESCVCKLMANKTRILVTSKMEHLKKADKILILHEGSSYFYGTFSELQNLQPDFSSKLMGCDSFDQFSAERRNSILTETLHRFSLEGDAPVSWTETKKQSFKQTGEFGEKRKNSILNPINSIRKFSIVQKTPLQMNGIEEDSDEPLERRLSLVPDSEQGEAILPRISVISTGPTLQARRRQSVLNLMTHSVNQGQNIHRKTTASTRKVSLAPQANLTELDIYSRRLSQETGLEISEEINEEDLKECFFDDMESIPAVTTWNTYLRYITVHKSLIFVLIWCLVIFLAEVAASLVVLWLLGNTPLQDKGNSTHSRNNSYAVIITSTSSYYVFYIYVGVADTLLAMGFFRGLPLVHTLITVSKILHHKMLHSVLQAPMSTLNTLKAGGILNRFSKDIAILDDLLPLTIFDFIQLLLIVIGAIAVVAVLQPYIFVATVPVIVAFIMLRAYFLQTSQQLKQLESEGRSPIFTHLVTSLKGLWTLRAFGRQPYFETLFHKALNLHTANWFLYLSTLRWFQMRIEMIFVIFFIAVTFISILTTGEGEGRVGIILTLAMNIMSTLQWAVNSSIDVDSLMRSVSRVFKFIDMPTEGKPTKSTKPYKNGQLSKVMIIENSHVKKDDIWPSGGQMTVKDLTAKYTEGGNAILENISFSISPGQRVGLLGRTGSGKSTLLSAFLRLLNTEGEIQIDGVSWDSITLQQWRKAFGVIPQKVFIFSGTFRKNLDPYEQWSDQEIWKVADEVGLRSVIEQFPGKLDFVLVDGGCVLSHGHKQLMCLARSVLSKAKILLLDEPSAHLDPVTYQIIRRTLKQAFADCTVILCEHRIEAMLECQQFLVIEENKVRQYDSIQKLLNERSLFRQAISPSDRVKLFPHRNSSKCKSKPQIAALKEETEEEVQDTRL
Procedure: Base medium (ADF+++) consisted of Advanced DMEM/Ham's F12, 2 mM Glutamax, 10 mM HEPES, […] penicillin/streptomycin.
Intestinal enteroid maintenance medium (IEMM) consisted of ADF+++, 1×B27 supplement, 1×N2 supplement, 1.25 mM N-acetyl cysteine, 10 mM Nicotinamide, 50 ng/mL hEGF, 10 nM Gastrin, 1 μg/mL hR-spondin-1, 100 ng/mL hNoggin, TGF-b type 1 inhibitor A-83-01, 100 μg/mL Primocin, 10 μM P38 MAPK inhibitor SB202190.
Bath 1 Buffer consisted of 1 mM MgCl2, 160 mM NaCl, 4.5 mM KCl, 10 mM HEPES, 10 mM Glucose, 2 mM CaCl2).
Chloride Free Buffer consisted of 1 mM Magnesium Gluconate, 2 mM Calcium Gluconate, 4.5 mM Potassium Gluconate, 160 mM Sodium Gluconate, 10 mM HEPES, 10 mM Glucose.
Bath1 Dye Solution consisted of Bath 1 Buffer, 0.04% Pluronic F127, 20 μM Methyl Oxonol, 30 μM CaCCinh-A01, 30 μM Chicago Sky Blue.
Chloride Free Dye Solution consisted of Chloride Free Buffer, 0.04% Pluronic F127, 20 μM Methyl Oxonol, 30 μM CaCCinh-A01, 30 μM Chicago Sky Blue.
Chloride Free Dye Stimulation Solution consisted of Chloride Free Dye Solution, 10 μM forskolin, 100 μM IBMX, and 300 nM Compound III.
Human intestinal epithelial enteroid cells were obtained from the Hubrecht Institute for Developmental Biology and Stem Cell Research, Utrecht, The Netherlands and expanded in T-Flasks as previously described (Dekkers J F, Wiegerinck C L, de Jonge H R, Bronsveld I, Janssens H M, de Winter-de Groot K M, Brandsma A M, de Jong N W M, Bijvelds M J C, Scholte B J, Nieuwenhuis E E S, van den Brink S, Clevers H, van der Ent C K, Middendorp S and M Beekman J M. A functional CFTR assay using primary cystic fibrosis intestinal organoids. Nat Med. 2013 July; 19(7):939-45).
3. Enteroid Cell Harvesting and Seeding […]
Enteroid cells were incubated with test compound in IEMM for 18-24 hours at 37° C., 95% humidity and 5% CO2. […] Chloride transport was initiated by addition of Chloride Free Dye Stimulation Solution and the fluorescence signal was read for 15 min. […] Chloride transport was then expressed as a percentage of the chloride transport following treatment with 3 μM (S)—N-((6-aminopyridin-2-yl)sulfonyl)-6-(3-fluoro-5-isobutoxyphenyl)-2-(2,2,4-trimethylpyrrolidin-1-yl)nicotinamide, 3 μM (R)-1-(2,2-difluorobenzo[d][1,3]dioxol-5-yl)-N-(1-(2,3-dihydroxypropyl)-6-fluoro-2-(1-hydroxy-2-methylpropan-2-yl)-1H-indol-5-yl)cyclopropanecarboxamide and 300 nM acute N-[2,4-bis(1,1-dimethylethyl)-5-hydroxyphenyl]-1,4-dihydro-4-oxoquinoline-3-carboxamide triple combination control (% Activity). […]
Enteroid cells were incubated with test compound in IEMM for 18-24 hours at 37° C., 95% humidity and 5% CO2. […] Chloride transport was initiated by addition of Chloride Free Dye Stimulation Solution and the fluorescence signal was read for 15 min. […]

Chain of CFTR (P13569 whole entry): as above

CFTR modulating activity (CFTR potentiator activity) (CFTR)	Ent. Max Activity (%) [1]	EC50 ([1]; enteroid cells, 18-24 hours incubation, acute 10 μM forskolin and 300 nM ivacaftor, read-out: Ent. EC50)	Compound	EC50 (F508del in NIH 3T3 cells)
confirmed			C[C@@H]1CCCCC[C@](O)(C(F)(F)F)C2=NN=C(O2)c2nc(c(C(F)(F)F)cc2N)O1 [(6R,12R)-17-Amino-12-methyl-6,15-bis(trifluoromethyl)-13,19-dioxa-3,4,18-triazatricyclo[12.3.1.12,5]nonadeca-1(18),2,4,14,16-pentaen-6-ol]	
	++ (++ is 30-60%)	3 to 30 µM	Cc1ccccc1-c1nc(NS(=O)(=O)c2cnn(C)c2)cc2oc3ccccc3c12 [Compound 79, 1-Methyl-N-[1-(o-tolyl)benzofuro[3,2-c]pyridin-3-yl]pyrazole-4-sulfonamide]	
	+ (+ is <300%)		Cc1ccccc1-c1cc2oc3ccccc3c2c(NS(=O)(=O)c2cnn(C)c2)n1 [Compound 80]	

Compound	CFTR modulating activity (CFTR potentiator activity) (CFTR)	Ent. Max Activity (%) [1]	EC50 ([1]; enteroid cells, 18-24 hours incubation, acute 10 μM forskolin and 300 nM ivacaftor, read-out: Ent. EC50)	EC50 (F508del in NIH 3T3 cells)
Cc1cc(C)c(-n2nc(NS(=O)(=O)c3ccccc3)c3ccc(C(C)(C)C)nc32)c(C)c1 [Compound 33, N-[6-tert-butyl-1-(2,4,6-trimethylphenyl)pyrazolo[3,4-b]pyridin-3-yl]benzenesulfonamide]		+ (+ is <300%)		< 1 µM
